Assay [1] relates to IFN-γ producing cells. Briefly: Promotion of immunity induction via transdermal immunization (conclusion from Tables 1, 2, 3, 8 and 10). As to conditions: acid as component of tape, liquid or cream formulations. Type of assay: in vivo, mouse.
In assay [2] the test system is IFN-γ producing cells. Put plainly: Promotion of immunity induction using a mucosal vaccine (conclusion from Tables 4, 5 and 6). Type of assay: in vivo, mouse. As to conditions: acid as component of sublingual liquid formulations.

Entries after “also recorded” stand apart in the source; their conditions may differ.

With `CCCCCCCCCCCCCC(=O)O` [myristic acid], the “promotion of immunity induction via transdermal immunization (in words)” value with IFN-γ producing cells [1] is on record as “suitable; also recorded: particularly preferable”. Besides, the “promotion of immunity induction using a mucosal vaccine (in words)” value (“promotion … using a mucosal vaccine (in words)” below) in the assay on IFN-γ producing cells [2] is “suitable; also recorded: particularly preferable”.
Turning to `CCCCCCCCCCCCCCCCCC(=O)O` [stearic acid], in the assay with IFN-γ producing cells [1], the “promotion of immunity induction via transdermal immunization (in words)” value is given as “suitable; also recorded: particularly preferable”.
Consider `CS(=O)(=O)O` [methanesulfonic acid], for which, in the assay on IFN-γ producing cells [1], the “promotion of immunity induction via transdermal immunization (in words)” value is “suitable; also recorded: particularly preferable”.
On to `CC(O)C(=O)O` (stereo not shown) [lactic acid], for which the “promotion of immunity induction via transdermal immunization (in words)” value in the assay on IFN-γ producing cells [1] is given as “suitable; also recorded: particularly preferable”. Further, in the assay with IFN-γ producing cells [2], the “promotion … using a mucosal vaccine (in words)” value is listed as “suitable; also recorded: particularly preferable”.
For `CCCCCCCCCCCC(=O)O` [lauric acid], in the assay on IFN-γ producing cells [1], the “promotion of immunity induction via transdermal immunization (in words)” value is recorded as “suitable; also recorded: particularly preferable”.
On to `CCCCCCCCCCCCCCCC(=O)O` [palmitic acid], for which the “promotion of immunity induction via transdermal immunization (in words)” value in the assay with IFN-γ producing cells [1] is “suitable; also recorded: particularly preferable”.
Take `O=C(O)CC(O)C(=O)O` (stereo not shown) [malic acid]: in the assay on IFN-γ producing cells [1], the “promotion of immunity induction via transdermal immunization (in words)” value was “suitable; also recorded: preferable”. In the assay with IFN-γ producing cells [2], the “promotion … using a mucosal vaccine (in words)” value is “suitable”.
As for `CCCCCCCC/C=C\CCCCCCCC(=O)O` [oleic acid], the “promotion of immunity induction via transdermal immunization (in words)” value in the assay on IFN-γ producing cells [1] was “suitable; also recorded: preferable”.
On to `CCCCCCCCCC(=O)O` [decanoic acid], for which, in the assay on IFN-γ producing cells [1], the “promotion of immunity induction via transdermal immunization (in words)” value is listed as “suitable; also recorded: particularly preferable”.
As for `O=C(O)c1ccccc1O` [salicylic acid], the “promotion of immunity induction via transdermal immunization (in words)” value in the assay with IFN-γ producing cells [1] is “suitable; also recorded: particularly preferable”. The “promotion … using a mucosal vaccine (in words)” value with IFN-γ producing cells [2] is “suitable”.
Regarding `CC(C)CCCCCCCCCCCCCCC(=O)O` [isostearic acid], in the assay on IFN-γ producing cells [1], the “promotion of immunity induction via transdermal immunization (in words)” value was “suitable; also recorded: preferable”. Besides, the “promotion … using a mucosal vaccine (in words)” value in the assay with IFN-γ producing cells [2] was “suitable; also recorded: particularly preferable”.
For the compound `O=C(O)CC(O)(CC(=O)O)C(=O)O` [citric acid], the “promotion … using a mucosal vaccine (in words)” value with IFN-γ producing cells [2] was “suitable; also recorded: particularly preferable”.
Consider `O=C(O)/C=C\C(=O)O` [maleic acid], for which the “promotion of immunity induction via transdermal immunization (in words)” value in the assay on IFN-γ producing cells [1] is “suitable; also recorded: preferable”. In addition, the “promotion … using a mucosal vaccine (in words)” value in the assay on IFN-γ producing cells [2] is reported as “suitable; also recorded: preferable”.
